Read-outs that look alike come from different tables or passages of the source.
Tests used:
HCMV NO protease = HCMV NO protease (Human cytomegalovirus, UniProt P16753); experiment: HCMV NO Protease Assay (inhibition of cleavage of internally quenched fluorogenic peptide substrate); assay type: biochemical; conditions: 100 nM HCMV NO protease, 5 μM substrate, 2.5 h at 30°, pH 8
Description: This particular assay determines the ability of a test compound to inhibit the activity of HCMV protease. More specifically, in the assay described herein, the inhibitory activity of the test compound is evaluated on the basis of its ability to interfere with the HCMV No protease cleavage of a fluorogenic peptide substrate which in turn is based on the maturation cleavage site of the enzyme.
A. HCMV NO Protease Assay
Material & Methods: Fluorescence measurements were recorded on a Perkin-Elmer LS-50B spectrofluorimeter equipped with a plate reader accessory. UV measurements were recorded on a Thermomax® microplate reader from Molecular Devices Corporation, Menlo Park, Calif., USA.
HCMV NO protease was assayed with an internally quenched fluorogenic substrate based on the maturation cleavage site (Abz-[…](3-NO2)R--OH, kcat /KM =260 M^-1 s^-1). The fluorescence increase upon cleavage of the Ala-Ser amide bond was monitored using excitation λ=312 nm (slit 2.5 nm) and emission λ=415 nm (slit 5 nm). A protocol adaptable to a 96-well plate format was designed for the determination of IC50 values of inhibitors. […] After this period, enzymatic hydrolysis of the fluorogenic substrate in the absence of inhibitor led to about a 30% conversion. Quenching was not required before fluorescence measurement since the total scanning time by the plate reader accessory was brief relative to the duration of the reaction. The aqueous incubation buffer contained 50 mM tris(hydroxymethyl)aminomethane.HCl pH 8, 0.5M Na2 SO4, 50 mM NaCl, 0.1 mM EDTA, 1 mM tris(2-carboxyethyl)phosphine.HCl, 3% v/v DMSO and 0.05% w/v casein. The final concentrations of HCMV NO protease (expressed in terms of total monomer concentration) and substrate were 100 nM and 5 μM respectively. IC50 values were obtained through fitting of the inhibition curve to a competitive inhibition model using SAS NLIN procedure. The mode of inhibition was determined by measurements of the initial rates (in cuvettes) at various substrate concentrations in the buffer as described above. The IC50 values listed in the following tables the IC50 were obtained according to this assay.

[1] = test system: HCMV (strain AD169, ATCC VR-538); experiment: Plaque Reduction Assay (PRA); assay type: cell-based, human cytomegalovirus (HCMV); conditions: Hs-68 cells, approximately 50 PFU HCMV AD169, 8 days at 37°
Description: B. Plaque Reduction Assay (PRA)
Hs-68 cells (ATCC #CRL 1635) were seeded in 12-well plates at 83,000 cells/well in 1 mL of DMEM medium (Gibco Canada Inc.) supplemented with 10% fetal bovine serum (FBS, Gibco Canada Inc.). The plates were incubated for 3 days at 37° to allow the cells to reach 80-90% confluency prior to the assay.
The medium was removed from the cells by aspiration. The cells were then infected with approximately 50 PFU of HCMV (strain AD169, ATCC VR-538) in DMEM medium supplemented with 5% inactivated FBS (assay medium). (DMEM medium is commercially available and has been described by R. Dulbecco et al., Virology 1959, 8, 396.) The virus was allowed to adsorb to cells for 2 h at 37°. Following viral adsorption, the medium was removed from the wells by aspiration. The cells were then incubated with or without 1 mL of appropriate concentrations of test reagent in assay medium. Occasionally, test compounds were added 24 h post-infection. After 4 days of incubation at 37°, the medium was exchanged with fresh medium containing test compound and 4 days later the cells were fixed with 1% aqueous formaldehyde and stained with a 2% violet solution in 20% ethanol in water. Microscopic plaques were counted using a stereomicroscope. Drug effects were calculated as a percent reduction in the number of plaques in the presence of each drug concentration compared to the number observed in the absence of drug. Ganciclovir was used as a positive control in all experiments.

[2] = Cytotoxic effects, tetrazolium salt (MTT) metabolic assay; assay type: cell-based; conditions: read-out: TC50 (the source's name)
Description: In conjunction with the appropriate starting materials and intermediates, the procedures of examples 1 to 11 can be used to prepare other compounds of formula 1. Examples of compounds thus prepared are listed in the following Tables I, II and III together with mass spectrum data for the compounds, and results from the assays A and B of example 12. Cytotoxic effects noted as TC50 in the following tables were determined according to the tetrazolium salt (MTT) metabolic assay, F. Denizot and F. Lang, J. Immun. Meth., 1986, 89, 271.

[3] = Human betaherpesvirus 5, AD169, Hs68, 192 h, read-out: EC50

Chain of HCMV NO protease (P16753 1-256): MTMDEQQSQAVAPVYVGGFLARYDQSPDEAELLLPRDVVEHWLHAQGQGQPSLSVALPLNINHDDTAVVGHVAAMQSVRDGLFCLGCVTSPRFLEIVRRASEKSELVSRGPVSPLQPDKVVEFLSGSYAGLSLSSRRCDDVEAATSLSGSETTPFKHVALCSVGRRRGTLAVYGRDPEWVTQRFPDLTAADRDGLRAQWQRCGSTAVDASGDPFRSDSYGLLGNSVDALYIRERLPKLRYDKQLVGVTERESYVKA

| Structure (SMILES) | IC50 (HCMV NO protease) | EC50 [1, 3] | CC50 [2] | EC50 ([1]; read-out: EC50) | EC50 [1] |
| --- | --- | --- | --- | --- | --- |
| CC[C@@H](NC(=O)N1C(=O)C[C@@H]1[C@@H](C)CC)c1ccccc1 [Entry 217] | 11 µM | 85 µM | > 250 µM |  |  |
| CC[C@H]1CC(=O)N1C(=O)N[C@H](CC)c1ccccc1 [Entry 214] | 7.6 µM | 180 µM | > 250 µM |  |  |
| CN(Cc1ccc(C(F)(F)F)cc1)C(=O)N1C(=O)C[C@@H]1Cc1ccco1 [Entry 221] | 7.1 µM | 59 µM | > 100 µM |  |  |
| C[C@@H]1C(=O)N(C(=O)Nc2ccncc2)[C@H]1Cc1ccccc1 [Entry 204] | 0.97 µM | 205 µM | > 250 µM |  |  |
| CN(Cc1ccc([N+](=O)[O-])cc1)C(=O)N1C(=O)C[C@@H]1Cc1nc2ccccc2s1 [Entry 225] | 0.7 µM | 30 µM | > 50 µM |  |  |
| CN(Cc1ccc([N+](=O)[O-])cc1)C(=O)N1C(=O)C[C@@H]1Cc1ccccc1 [Entry 122] | 1.5 µM | 105 µM | > 250 µM |  |  |
| CC[C@@H](NC(=O)N1C(=O)C[C@@H]1CCc1ccccc1)c1ccccc1 [Entry 212] | 4.3 µM | 140 µM | > 250 µM |  |  |
| CN(Cc1ccc([N+](=O)[O-])cc1)C(=O)N1C(=O)C[C@@H]1Cc1cccs1 [Entry 226] | 1.3 µM | 70 µM | > 79 µM |  |  |
| CCC(NC(=O)N1C(=O)[C@@H](C)[C@@H]1Cc1ccccc1)c1ccncc1 (single isomer, unassigned) [Entry 205] | 21 µM |  | > 250 µM | > 250 µM |  |
| CCC(NC(=O)N1C(=O)[C@@H](C)[C@@H]1Cc1ccccc1)c1ccncc1 (single isomer, unassigned) [Entry 206] | 3.2 µM |  | > 250 µM | 96 µM |  |
| CC[C@@H](NC(=O)N1C(=O)[C@@H](SC)[C@@H]1Cc1ccccc1)c1ccccc1 [Entry 209, 4(S)-Benzyl-3(S)-(methylthio)-2-oxoazetidine-1-carboxylic acid (1(R)-phenylpropyl)amide] | 4.7 µM | 27 µM | > 250 µM |  |  |
| CN(Cc1ccc(C(F)(F)F)cc1)C(=O)N1C(=O)C[C@@H]1Cc1nc2ccccc2s1 [Entry 219] | 0.88 µM | 110 µM | > 250 µM |  |  |
| COc1ccc(NC(=O)N2C(=O)C[C@@H]2Cc2ccccc2)cc1 [Entry 102] | 3.9 µM | 215 µM | > 250 µM |  |  |
| CN(Cc1cccc([N+](=O)[O-])c1)C(=O)N1C(=O)C[C@@H]1Cc1ccccc1 [Entry 133] | 6.9 µM | 170 µM | > 250 µM |  |  |
| CN(Cc1ccccc1[N+](=O)[O-])C(=O)N1C(=O)C[C@@H]1Cc1ccccc1 [Entry 124] | 6.9 µM | 150 µM | > 250 µM |  |  |
| CN(Cc1ccc(C(F)(F)F)cc1)C(=O)N1C(=O)CC1Cc1nnn(C)n1 (stereo in doubt) [Entry 223, 4(R)-(2-methyl-2H-tetrazol-5-ylmethyl)-2-oxoazetidine-1-carboxylic acid N-methyl-N{{(4-trifluoromethyl)phenyl}methyl}amide] | 5.7 µM | 94 µM | > 195 µM |  |  |
| CN(Cc1ccc(S(=O)(=O)C(F)(F)F)cc1)C(=O)N1C(=O)C[C@@H]1Cc1ccccc1 [Entry 139] | 4.3 µM | > 250 µM | > 250 µM |  |  |
| CN(Cc1ccc([N+](=O)[O-])cc1)C(=O)N1C(=O)C[C@@H]1Cc1ccco1 [Entry 229] | 3.1 µM | 143 µM | > 261 µM |  |  |
| O=C1C[C@H](Cc2ccccc2)N1C(=O)Nc1ccncc1 [Entry 107] | 1.9 µM | > 250 µM | > 250 µM |  |  |
| CCC(NC(=O)N1C(=O)C[C@@H]1Cc1ccccc1)c1ccncc1 (stereo partly drawn) [Entry 109] | 1.6 µM | 130 µM | > 250 µM |  |  |
| CN(Cc1ccc([N+](=O)[O-])cc1)C(=O)N1C(=O)C[C@@H]1Cc1nccs1 [Entry 227] | 2.5 µM | > 29 µM | > 29 µM |  |  |
| CN(Cc1ccc(C(F)(F)F)cc1)C(=O)N1C(=O)C[C@@H]1Cc1nccs1 [Entry 218, 4(R)-(2-Thiazolylmethyl)-2-oxoazetidine-1-carboxylic acid N-methyl-N-{{(4-trifluoromethyl)phenyl}methyl}amide] | 5.5 µM |  | 178 µM | 78 µM |  |
| O=C1C[C@H](Cc2ccccc2)N1C(=O)NCc1ccncc1 [Entry 136, 4(S)-Benzyl-2-oxoazetidine-1-carboxylic acid (4-pyridinylmethyl) amide] | 13 µM | > 250 µM | > 250 µM |  |  |
| CN(Cc1ccc(Cl)cc1)C(=O)N1C(=O)C[C@@H]1Cc1ccccc1 [Entry 126] | 6.9 µM | 150 µM | > 250 µM |  |  |
| CC(=O)Nc1ccc(CN(C)C(=O)N2C(=O)C[C@@H]2Cc2ccccc2)cc1 [Entry 132] | 17 µM | 150 µM | > 250 µM |  |  |
| CN(Cc1ccc(C(F)(F)F)cc1)C(=O)N1C(=O)C[C@@H]1Cc1nccs1 [Entry 231] | 2.7 µM |  | > 25 µM |  | 11 µM |
| COC(=O)c1ccc(CN(C)C(=O)N2C(=O)C[C@@H]2Cc2ccccc2)cc1 [Entry 131] | 2.5 µM | 140 µM | > 250 µM |  |  |
| O=C1C[C@H](Cc2ccccc2)N1C(=O)NCc1ccccc1 [Entry 116, 4(S)-Benzyl-2-oxoazetidine-1-carboxylic acid benzyl-amide] | 8.9 µM | 53 µM | > 250 µM |  |  |
